Source: the NIST ThermoML archive (doi:10.1016/j.jct.2017.08.004)

Assay: molar heat capacity at constant pressure
Conditions: 101.33 kPa, Crystal

OC[C@@H](O)[C@@H](O)[C@H](O)[C@H](O)CO [D-mannitol]
molar heat capacity at constant pressure [J/K/mol]
Conditions	Small sample (50 mg) DSC	relaxation calorimetry
1 K	–	0.001199
1.923 K	–	0.006707
2 K	–	0.007583
2.139 K	–	0.009192
2.373 K	–	0.01256
2.634 K	–	0.01689
2.928 K	–	0.02301
3 K	–	0.02469
3.249 K	–	0.03152
3.602 K	–	0.04303
3.997 K	–	0.05809
4 K	–	0.05872
4.435 K	–	0.07904
4.92 K	–	0.1115
5 K	–	0.1167
5.459 K	–	0.1535
6 K	–	0.2067
6.057 K	–	0.2121
6.719 K	–	0.2951
7 K	–	0.3376
7.454 K	–	0.4159
8 K	–	0.5187
8.269 K	–	0.5829
9 K	–	0.7614
9.171 K	–	0.8041
10 K	–	1.071
10.2 K	–	1.131
11.29 K	–	1.565
12.52 K	–	2.163
13.89 K	–	2.945
15 K	–	3.67
15.42 K	–	3.976
17.11 K	–	5.278
18.99 K	–	6.927
20 K	–	7.832
21.08 K	–	8.9
23.4 K	–	11.29
25 K	–	13.01
25.98 K	–	14.06
28.84 K	–	17.28
30 K	–	18.66
32.02 K	–	20.91
35 K	–	24.4
35.55 K	–	25.01
39.45 K	–	29.53
40 K	–	30.07
43.79 K	–	34.41
45 K	–	35.64
48.59 K	–	39.53
50 K	–	41.11
53.92 K	–	45.29
55 K	–	46.48
59.84 K	–	51.45
60 K	–	51.67
65 K	–	56.63
66.4 K	–	58.03
70 K	–	61.48
73.71 K	–	64.84
75 K	–	66.19
80 K	–	70.77
81.8 K	–	72.99
85 K	–	75.22
90 K	–	79.54
90.8 K	–	80.09
95 K	–	83.75
100 K	–	87.87
100.74 K	–	87.67
110 K	–	95.83
110.88 K	–	96.15
120 K	–	103.5
120.83 K	–	104.57
130 K	–	110.93
130.91 K	–	112.04
140 K	–	118.19
140.97 K	–	119.24
150 K	–	125.32
151.12 K	–	126.15
160 K	–	132.36
161.2 K	–	133.18
170 K	–	139.33
171.28 K	–	140.05
180 K	–	146.27
181.37 K	–	147.35
188.15 K	143.51	–
189.15 K	144.52	–
190 K	–	153.2
190.15 K	145.73	–
191.15 K	146.73	–
191.44 K	–	154.23
192.15 K	147.51	–
193.15 K	148.54	–
194.15 K	149.99	–
195.15 K	151.06	–
196.15 K	152.24	–
197.15 K	153.48	–
198.15 K	154.54	–
199.15 K	155.53	–
200 K	–	160.12
200.15 K	156.46	–
201.15 K	157.4	–
201.56 K	–	160.73
202.15 K	158.14	–
203.15 K	158.99	–
204.15 K	159.96	–
205.15 K	160.76	–
206.15 K	161.64	–
207.15 K	162.47	–
208.15 K	163.24	–
209.15 K	163.78	–
210 K	–	167.07
210.15 K	164.68	–
211.15 K	165.46	–
211.67 K	–	167.61
212.15 K	166.24	–
213.15 K	167.09	–
214.15 K	167.92	–
215.15 K	168.49	–
216.15 K	169.55	–
217.15 K	170.24	–
218.15 K	170.94	–
219.15 K	171.88	–
220 K	–	174.05
220.15 K	172.81	–
221.15 K	173.38	–
221.78 K	–	175.44
222.15 K	174.15	–
223.15 K	174.98	–
224.15 K	175.72	–
225.15 K	176.52	–
226.15 K	177.3	–
227.15 K	177.96	–
228.15 K	178.66	–
229.15 K	179.32	–
230 K	–	181.07
230.15 K	179.98	–
231.15 K	180.68	–
231.88 K	–	182.4
232.15 K	181.3	–
233.15 K	182.34	–
234.15 K	182.94	–
235.15 K	183.75	–
236.15 K	184.67	–
237.15 K	185.22	–
238.15 K	186	–
239.15 K	186.79	–
240 K	–	188.14
240.15 K	187.46	–
241.15 K	188.04	–
241.89 K	–	189.63
242.15 K	188.69	–
243.15 K	189.39	–
244.15 K	190.16	–
245.15 K	190.77	–
246.15 K	191.37	–
247.15 K	192.19	–
248.15 K	192.92	–
249.15 K	193.73	–
250 K	–	195.26
250.15 K	194.6	–
251.15 K	195.14	–
252.03 K	–	197.13
252.15 K	195.91	–
253.15 K	196.71	–
254.15 K	197.56	–
255.15 K	198.46	–
256.15 K	199.17	–
257.15 K	199.9	–
258.15 K	200.87	–
259.15 K	201.58	–
260 K	–	202.45
260.15 K	202.15	–
261.15 K	203.09	–
262.09 K	–	203.85
262.15 K	203.84	–
263.15 K	204.4	–
264.15 K	205.1	–
265.15 K	205.89	–
266.15 K	206.4	–
267.15 K	207.11	–
268.15 K	207.89	–
269.15 K	208.64	–
270 K	–	209.71
270.15 K	209.5	–
271.15 K	210.37	–
272.12 K	–	211.38
272.15 K	211.22	–
273.15 K	211.63	212.01
274.15 K	212.27	–
275.15 K	213.11	–
276.15 K	213.85	–
277.15 K	214.68	–
278.15 K	215.33	–
279.15 K	216.09	–
280 K	–	217.04
280.15 K	216.75	–
281.15 K	217.54	–
282.15 K	218.34	–
282.18 K	–	219
283.15 K	219.11	–
284.15 K	219.88	–
285.15 K	220.37	–
286.15 K	221.11	–
287.15 K	221.79	–
288.15 K	222.53	–
